Laboratory results reported in US20200261534A1, “NEW TREATMENTS OF MULTIPLE MYELOMA” (priority 2017, published 2020).
Like-named read-outs stand apart in the source and are kept apart here. Starred links: 1 amine or outer side, 2 acyl side, 3 side chain; linkers in the order of their positions; H or OH if unused. Positions of bridges follow the written chain, without caps; N, C: chain ends. Non-standard residues stand in square brackets, D forms with d. Residues, ends and D or L forms follow the SMILES beside them. No end group written: not given here. ξ: configuration not given here. ξαMeNle(6-ylidene) = CC(CCCC=[*:3])(N[*:1])C(=O)[*:2]; X1 = CC(CCCCCCC=[*:3])(N[*:1])C(=O)[*:2]

Experiments:
Type in all cases: cell-based
[1] = system: MCF-7, epithelial (breast cancer)
Procedure: MCF-7, epithelial (breast cancer), ECACC: 86012803 […] During the amplification step and the assays adherent cells were rinsed with DPBS (Dulbecco's Phosphate Buffered Saline, Sigma D1283) three times and afterward treated for 5 minutes with trypsin ([…]) (Gibco-BRL, 15400054) in solution of DPBS at 37° C., and, once detached, transferred in the culturing medium. No-adherent cells were centrifuged and transferred in the culturing medium. Cells were counted in a Neubauer chamber after labelling with Tripan-Blue. […] Cells were seeded at a density of 10000 cells/well in 100 μl of medium in 96 well plates. […] Controls are the untreated cells. Each experiment was performed in triplicate. Cells were incubated with the compounds at the indicated concentrations during 24-72 h in incubator under CO2 atmosphere at 37° C. […] Stock solution of MTT (475989 Calbiochem) was 5 mg/ml in PBS. 1×.10 μl/well of MTT solution were added and the plate was incubated for 3-4 hr. […] Plates were incubated for 16 h at room temperature under orbital shaking. Absorbance at 570 nm was finally measured. […] The dose/response curve was fitted through the sigmoidal equation dose-response (variable slope) and the IC50 values were calculated as follow: Y=Bottom+(Top−Bottom)/(1+10^{[(LogIC50−X)*HillSlope]},

[2] = system: MM.1S, B Lymphoblast (multiple myeloma); assay: MTT viability assay, MM.1S
Procedure: MM.1S, B Lymphoblast (multiple myeloma), ATCC: CRL-2974
(§1) Cell lines A549, MCF-7 and RAMOS were cultured in incubator under CO2 (6%) at 37° C. in DMEM high glucose (Dulbecco's Modified Eagle Solution, Gibco-BRL 31966-21) medium with 10% fetal bovine serum inactivated (FBS) (Gibco-BRL 10106-169). Cell lines HL-60 and MM.1S were cultured in incubator at 37° C. in RPMI-1640 (Sigma R8758) medium with 10% of fetal bovine serum inactivated (FBS) and 2 mM glutamine (Sigma G7513). Cell lines BJ were cultured in incubator under CO2 (6%) at 37° C. in Eagle's Minimum Essential Medium (Sigma, M-2279) with 10% fetal bovine serum inactivated (FBS) (Gibco-BRL 10106-169).
(§2) During the amplification step and the assays adherent cells were rinsed with DPBS (Dulbecco's Phosphate Buffered Saline, Sigma D1283) three times and afterward treated for 5 minutes with trypsin ([…]) (Gibco-BRL, 15400054) in solution of DPBS at 37° C., and, once detached, transferred in the culturing medium. No-adherent cells were centrifuged and transferred in the culturing medium. Cells were counted in a Neubauer chamber after labelling with Tripan-Blue.
Cells were seeded at a density of 10000 cells/well in 100 μl of medium in 96 well plates. After 24 h, the compounds to be tested were added to calculate the dose/response curve at the starting concentration of 100 μM with serial dilutions (1:1). Controls are the untreated cells. Each experiment was performed in triplicate.
(§3) Cells were incubated with the compounds at the indicated concentrations during 24-72 h in incubator under CO2 atmosphere at 37° C. Then, cell viability was measured by means of MTT (3-(4,5-dimethylthiazol-2-yl)-2,5-diphenyltetrazolium bromide) assay. Stock solution of MTT (475989 Calbiochem) was 5 mg/ml in PBS. 1×.10 μl/well of MTT solution were added and the plate was incubated for 3-4 hr. The medium was discarded and 100 μl of extracting buffer (PBS 1×, 15% SDS, 50% […] N,N-Dimethylformamide, pH 4.7) were added to each well. Plates were incubated for 16 h at room temperature under orbital shaking. Absorbance at 570 nm was finally measured. As negative control (experiment noise) 3 wells were treated with 20 μl/well of a solution of SDS 10% in H2O.
(§4) Data analysis was performed calculating the percentage of cell viability normalized vs. the values of negative control, which was considered equal to 100%. The dose/response curve was fitted through the sigmoidal equation dose-response (variable slope) and the IC50 values were calculated as follow:
Y=Bottom+(Top−Bottom)/(1+10^{[(LogIC50−X)*HillSlope]},
All cell lines were cultured in incubator at 37° C. in RPMI-1640 (Sigma R8758) medium with 10% of fetal bovine serum inactivated (FBS) and 2 mM glutamine (Sigma G7513). During the amplification step cells were centrifuged and transferred into the culturing medium. Cells were counted in a Neubauer chamber after labelling with Tripan-Blue.
as §3, with “peptidomimetic compound (S09)” for “compounds”
Cell lines A549 and MBA-MD231 were cultured in incubator under CO2 (6%) at 37° C. in DMEM high glucose (Dulbecco's Modified Eagle Solution, Gibco-BRL 31966-21) medium with 10% fetal bovine serum inactivated (FBS) (Gibco-BRL 10106-169). […]

[3] = system: A549, epithelial (lung cancer); assay: MTT viability assay, A549
Procedure: A549, epithelial (lung cancer), ATCC: CCL-185
as §1
as §2, with “Tripan-Blue. […]” for “Tripan-Blue.”
as §3
as §4, with “follow: […]” for “follow:”

[4] = MCF7, same protocol as Example 2, Table 6, read-out: Compound (IC50)
[5] = MM.1S, same protocol as Example 2, Table 6, read-out: Compound (IC50)
[6] = A549, same protocol as Example 2, Table 6, read-out: Compound (IC50)

Measured: IC50

CC[C@H](C)[C@H](NC(=O)[C@H](Cc1ccc(O)cc1)NC(=O)C1(C)CCCC=CCCCCCCC(C)(NC(=O)[C@@H](NC(=O)[C@H](CCCCN)NC(=O)[C@@H]2CCCN2C(=O)[C@H](C)N)C(C)C)C(=O)N[C@@H]([C@@H](C)CC)C(=O)N[C@@H](CC(C)C)C(=O)N[C@@H](CCCCN)C(=O)N[C@@H](CCCCN)C(=O)N[C@@H](C)C(=O)N[C@@H]([C@@H](C)O)C(=O)N1)C(=O)N[C@@H](CC(C)C)C(=O)N[C@@H](CO)C(=O)O (stereo partly drawn) [IDP-S21, APKVXILKKATXYILS] (H-APKV[X1]ILKKAT[ξαMeNle(6-ylidene)]YILS-OH; staple 5-12)
> 100 µM: [1]; [4] | [2]; [5] | [3]; [6]

CC[C@H](C)[C@H](NC(=O)C1(C)CCCC=CCCCCCCC(C)(NC(=O)[C@@H](NC(=O)[C@@H](NC(=O)[C@H](CCCCN)NC(=O)[C@@H]2CCCN2C(=O)[C@H](C)N)C(C)C)C(C)C)C(=O)N[C@@H](CC(C)C)C(=O)N[C@@H](CCCCN)C(=O)N[C@@H](CCCCN)C(=O)N[C@@H](C)C(=O)N[C@@H]([C@@H](C)O)C(=O)N[C@@H](C)C(=O)N1)C(=O)N[C@@H](CC(C)C)C(=O)N[C@@H](CO)C(=O)O (stereo partly drawn) [IDP-S22, APKVVXLKKATAXILS] (H-APKVV[X1]LKKATA[ξαMeNle(6-ylidene)]ILS-OH; staple 6-13; N-terminus and C-terminus assumed)
> 100 µM: [1] | [2] | [3]

CC[C@H](C)[C@@H]1NC(=O)[C@H](Cc2ccc(O)cc2)NC(=O)[C@H](C)NC(=O)[C@H]([C@@H](C)O)NC(=O)[C@H](C)NC(=O)C(C)(NC(=O)[C@H](CCCCN)NC(=O)[C@H](CC(C)C)NC(=O)[C@@H](NC(=O)[C@@H](NC(=O)[C@@H](NC(=O)[C@H](CCCCN)NC(=O)[C@@H]2CCCN2C(=O)[C@H](C)N)C(C)C)C(C)C)[C@@H](C)CC)CCCCCCC=CCCCC(C)(C(=O)N[C@H](C(=O)O)C(C)C)NC(=O)[C@H](CC(C)C)NC1=O (stereo partly drawn) [IDP-S23, APKVVILKXATAYILXV] (H-APKVVILK[X1]ATAYIL[ξαMeNle(6-ylidene)]V-OH; staple 9-16)
> 100 µM: [1]; [4] | [2]; [5] | [3]; [6]

RQIKIWFQNRRMKWKKNELKRAFAALRDQI [Int-HI-S6A-F8, reference compound]
> 100 µM: [1] | [2] | [3]
